Measured values published in ChEMBL document CHEMBL1150006, “Synthesis of new imidazo[1,2-b]pyridazine isosteres of potent imidazo[4,5-b]pyridine angiotensin II antagonists” (Bioorg Med Chem Lett, 1994).

Key:
[1] = molecular target: T1, Type-1 angiotensin II receptor (Oryctolagus cuniculus, UniProt P34976); assay: In vitro binding affinity evaluated by its ability to displace the specific binding ligand 125I-SAR1, Ile8-AII from Angiotensin II receptor, type 1 in rabbit aorta membrane; assay type: cell membranes
T1 sequence (P34976 whole entry): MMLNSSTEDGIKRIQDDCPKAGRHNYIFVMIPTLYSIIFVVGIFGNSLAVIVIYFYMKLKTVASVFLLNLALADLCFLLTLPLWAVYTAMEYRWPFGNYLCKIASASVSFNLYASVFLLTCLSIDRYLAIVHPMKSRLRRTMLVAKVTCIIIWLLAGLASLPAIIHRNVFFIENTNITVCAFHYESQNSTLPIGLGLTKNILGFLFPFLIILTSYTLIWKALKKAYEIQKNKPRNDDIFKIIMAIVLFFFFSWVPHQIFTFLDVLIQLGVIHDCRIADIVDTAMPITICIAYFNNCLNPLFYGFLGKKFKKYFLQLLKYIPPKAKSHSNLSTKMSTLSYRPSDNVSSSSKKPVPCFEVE

Rattus norvegicus [2] = species: Rattus norvegicus; assay: Percent inhibition exceeded duration of 6 hours; assay type: functional
[3] = molecular target: T2, Type-2 angiotensin II receptor (Rattus norvegicus, UniProt P35351); assay: In vitro binding affinity at AT2 receptor determined by its ability to displace the specific binding ligand [125I]-Sar1, Ile8-AII from rat brain membrane
T2 sequence (P35351 whole entry): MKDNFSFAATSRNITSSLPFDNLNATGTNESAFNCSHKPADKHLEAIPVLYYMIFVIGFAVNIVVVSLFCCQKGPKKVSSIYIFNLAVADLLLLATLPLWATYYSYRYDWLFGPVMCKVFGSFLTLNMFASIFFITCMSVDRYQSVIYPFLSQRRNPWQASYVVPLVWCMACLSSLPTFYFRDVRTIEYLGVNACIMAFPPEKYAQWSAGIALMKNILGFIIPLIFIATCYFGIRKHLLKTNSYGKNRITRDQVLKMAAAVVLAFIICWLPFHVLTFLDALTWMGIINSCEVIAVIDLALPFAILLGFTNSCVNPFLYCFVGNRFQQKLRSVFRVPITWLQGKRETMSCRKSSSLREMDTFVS

Rattus norvegicus [4] = assay: Dose required for more than 90% maximal inhibition of blood pressure response at iv bolus administration in conscious normotensive rats; assay type: functional

| IC50 [1] | IC50 [3] | Compound | Inhibition (Rattus norvegicus [2]) | Dose (Rattus norvegicus [4]) |
| --- | --- | --- | --- | --- |
| 1.7 nM | – | CCc1nc2c(C)cc(C)nn2c1Cc1ccc(-c2ccccc2NS(=O)(=O)C(F)(F)F)cc1 | – | – |
| 0.8 nM | – | CCc1nc2c(C)cc(C)nn2c1Cc1ccc(-c2ccccc2S(=O)(=O)NC(=O)c2ccccc2)cc1 | – | – |
| 5.7 nM | > 10 nM | CCc1nc2c(C)cc(C)nn2c1Cc1ccc(-c2ccccc2-c2nn[nH]n2)cc1 | >30% | 1 mg/kg |
| 83 nM | – | CCc1nc2c(C)cc(C)nn2c1Cc1ccc(-c2ccccc2C(=O)O)cc1 | – | – |
